Patent US20120130060A1, “Modified antisense oligopeptides with anticancer properties and method of obtaining them” (priority 2010, published 2012)

Assays:
[1] = ED50 and therapeutic index, comparative characteristics of Anticanum and Taxotere; format: in vivo
[2] = Average lethal intravenous dose in rats; settings: both, rat, in vivo
From the text: The calculation of the average lethal dose was made according to B. M. Shtabskiy's methods with the use of the equation:
where: • X1 and X2 are the values of the two extreme of the three doses studied that have an effect on more or less than 50% of the animals; the third dose is the intermediate; • Y1 ? Y2 are the lethality percentages corresponding to doses X1 and X2; • ΣY— is the sum of the three doses studied; the number of doses used in the calculations is equal to 3.
Then d, the average margin of error for the average lethal dose was found through use of the Miller-Tainter formula:
N is the total number of animals in the groups in which even one animal died or survived, and the confidence ranges were established.

CC(=O)O[C@@]12CO[C@@H]1C[C@H](O)[C@@]1(C)C(=O)[C@H](O)C3=C(C)[C@@H](OC(=O)[C@H](O)[C@@H](NC(=O)OC(C)(C)C)c4ccccc4)C[C@@](O)([C@@H](OC(=O)c4ccccc4)[C@H]21)C3(C)C [Taxotere] showed an ED50 [1] of 0.035 mg/kg and an LD50 [2] of 0.12 mg/kg.
